Peptide text beside a SMILES is read from it.
Key:
Assay type in all cases: cell-based
[1] = test system: Enterococcus faecalis ATTC 29212; details: 20 h, 37° C., TSB, 100% growth inhibition
Description: (§1) The microorganisms Escherichia coli ATTC 25922, Pseudomonas aeroginosa ATTC 27853, Staphylococcus aureus ATTC 25923 and Enterococcus faecalis ATTC 29212 and a Brazilian strain of P. aeroginosa were used for the anti-microbial assay
(§2) The microorganisms were cultured in stationary culture at 37° C. Bacteria were grown in Tryptic Soy Broth (TSB). The bioassays were performed by liquid growth inhibition assay lawn as described by Bulet et al (Bulet, P., Dimarcq, J. L., Hetru, C., Lagueux, M., Charlet, M., Hegy, G., VanDorsselaer, A. and Hoffmann, J. A. 1993. J. Biol. Chem. 268, 14893-14897). Molecules of Phylloseptin I were dissolved in sterile distilled and deionized water and diluted 8-fold in TSB (OXIOD England) broth. Various concentrations of PSI solution were tested, being the highest 128 μg/ml. The initial inoculum was approximately 1×10^5 colony forming units (CFU)/ml and limit of detection was 10^2 CFU/ml. The final volume was 250 μl (25 μl of the peptide test in water, 25 μl of the inoculum in TSB, and 200 μl of TSB broth). The minimal inhibitory concentration (MIC) was measured for turbidity (OD at 595 nm) 20 h after all microorganisms were grown in stationary culture at 37° C. The lowest concentration of the peptide in which no growth occurred was defined as the MIC.
(§3) The minimal inhibitory concentrations (MICs) of the isolated Phylloseptin I against several Gram-positive and Gram-negative bacteria were determined as described by Park et al (Park, C. B., Kim, M. S., and Kim, S. C. 1996. 218 Biochem. Biophys. Res. Commun. 408-413.). […] That is, the minimal inhibitory concentration was defined as the peptide concentration which produces 100% of microorganism growth inhibition after 20 h incubation in culture media.

[2] = test system: Escherichia coli ATTC 25922; details: 20 h, 37° C., TSB, 100% growth inhibition
Description: as §1, §2, §3

[3] = test system: Staphylococcus aureus ATTC 25923; details: Staphilococcus aureus ATTC; 20 h, 37° C., TSB; 100% growth inhibition
Description: as §1, §2, §3

human red blood cells = experiment: Hemolysis assay
Description: Human erythrocytes (blood type O^−) from a healthy person were freshly prepared prior to each experiment. Hemolytic activity was assayed as described by Aboudy etal (Aboudy, Y., Mendelson, E., Shalit, I., Bessalle, R., Fridikin, M. 1994. Int. J. Peptide Protein Res. 43, 573-582.) with minor modifications. Three milliliters of freshly prepared erythrocytes (for methodology see Gibson, B. W., Tang, D., Mandrell, R., Kelly, M. and Spindel, E. R. 1991. J. Biol. Chem. 266, 23103-23111.21) was washed with isotonic phosphate-buffered saline (PBS), pH 7.4, until the color of the supernatant turned clear. The washed erythrocytes were then diluted to a final volume of 20 ml in the same buffer. Aliquots of cell suspentions (190 μl) containing samples (10 μl) were serially diluted in PBS, incubated at 37° C. for 30 min and then centrifuged at 4000×g for 5 min; 100 μl of supernatant was taken, diluted to 1.0 ml with PBS, and monitored at 567 nm. The relative optical density, as compared with that of the cell suspension treated with 0.2% Triton X-100, was defined as % hemolysis.
The hemolytic activity of Phylloseptin I and II was tested at different concentrations.

[4] = test system: Pseudomonas aeroginosa ATTC 27853; details: Pseudomonas aeruginosa ATTC; 20 h, 37° C., TSB; 100% growth inhibition
Description: as §1, §2, §3

[5] = test system: Pseudomonas aeruginosa wt; details: Pseudomonas aeruginosa wt (Brazilian strain); 20 h, 37° C., TSB; 100% growth inhibition
Description: as §1, §2, §3

Row | Molecule | Minimal Inhibitory concentration [1] [µg/mL] | Minimal Inhibitory concentration [2] [µg/mL] | Minimal Inhibitory concentration [3] [µg/mL] | Minimal Inhibitory concentration [4] [µg/mL] | Minimal Inhibitory concentration [5] [µg/mL] | other results
1 | CC1(C)S[C@@H]2[C@H](NC(=O)[C@H](N)c3ccccc3)C(=O)N2[C@H]1C(=O)O [Amplicilyn] | 128 | 64 | – | – | – | –
2 | O=C(N[C@H](CO)[C@H](O)c1ccc([N+](=O)[O-])cc1)C(Cl)Cl [Chloranfenicol] | 32 | 32 | 32 | – | – | –
3 | CC[C@H](C)[C@H](NC(=O)[C@H](C)NC(=O)[C@H](CO)NC(=O)[C@@H](NC(=O)[C@H](C)NC(=O)[C@H](CC(N)=O)NC(=O)[C@@H](NC(=O)[C@H](C)NC(=O)[C@H](Cc1c[nH]cn1)NC(=O)[C@@H]1CCCN1C(=O)[C@@H](NC(=O)[C@H](CC(C)C)NC(=O)[C@H](CO)NC(=O)[C@H](CC(C)C)NC(=O)[C@@H](N)Cc1ccccc1)[C@@H](C)CC)[C@@H](C)CC)C(C)C)C(=O)N[C@@H](C)C(=O)N[C@@H](CCCCN)C(=O)N[C@@H](Cc1c[nH]cn1)C(=O)N[C@@H](CC(N)=O)C(=O)O [PS I, Phe Leu Ser Leu Ile Pro His Ala Ile Asn Ala Val Ser Ala Ile Ala Lys His Asn] (H-FLSLIPHAINAVSAIAKHN-OH) | 8 | 16 | 16 | 8 | 6 | % Hemolysis of human red blood cells (human red blood cells; 1 μg/mL (0.496 μM), 37° C., 30 min, relative to 0.2% Triton X-100): 0.00%; % Hemolysis of human red blood cells (human red blood cells; 2 μg/mL (0.990 μM), 37° C., 30 min, relative to 0.2% Triton X-100): 0.00%; % Hemolysis of human red blood cells (human red blood cells; 4 μg/mL (1.980 μM), 37° C., 30 min, relative to 0.2% Triton X-100): 0.00%; % Hemolysis of human red blood cells (human red blood cells; 8 μg/mL (3.968 μM), 37° C., 30 min, relative to 0.2% Triton X-100): 0.30%; % Hemolysis of human red blood cells (human red blood cells; 16 μg/mL (7.937 μM), 37° C., 30 min, relative to 0.2% Triton X-100): 0.57%; % Hemolysis of human red blood cells (human red blood cells; 32 μg/mL (15.873 μM), 37° C., 30 min, relative to 0.2% Triton X-100): 0.60%; % Hemolysis of human red blood cells (human red blood cells; 64 μg/mL (31.746 μM), 37° C., 30 min, relative to 0.2% Triton X-100): 0.98%; % Hemolysis of human red blood cells (human red blood cells; 128 μg/mL (63.492 μM), 37° C., 30 min, relative to 0.2% Triton X-100): 1.98%
4 | CC[C@H](C)[C@H](NC(=O)[C@H](C)NC(=O)[C@H](Cc1c[nH]cn1)NC(=O)[C@@H]1CCCN1C(=O)[C@@H](NC(=O)[C@H](CC(C)C)NC(=O)[C@H](CO)NC(=O)[C@H](CC(C)C)NC(=O)[C@@H](N)Cc1ccccc1)[C@@H](C)CC)C(=O)N[C@@H](CC(N)=O)C(=O)N[C@@H](C)C(=O)N[C@H](C(=O)N[C@@H](CO)C(=O)N[C@H](C(=O)N[C@@H](CC(C)C)C(=O)N[C@H](C(=O)N[C@@H](Cc1c[nH]cn1)C(=O)N[C@@H](Cc1c[nH]cn1)C(=O)N[C@@H](Cc1ccccc1)C(=O)O)C(C)C)[C@@H](C)O)C(C)C [PS II, Phe Leu Ser Leu Ile Pro His Ala Ile Asn Ala Val Ser Thr Leu Val His His Phe] (H-FLSLIPHAINAVSTLVHHF-OH) | – | – | – | – | – | % Hemolysis of human red blood cells (human red blood cells; red cells of human, 1 μg/mL): 0.00%; % Hemolysis of human red blood cells (human red blood cells; red cells of human, 2 μg/mL): 0.00%; % Hemolysis of human red blood cells (human red blood cells; red cells of human, 4 μg/mL): 0.10%; % Hemolysis of human red blood cells (human red blood cells; red cells of human, 8 μg/mL): 0.28%; % Hemolysis of human red blood cells (human red blood cells; red cells of human, 16 μg/mL): 0.70%; % Hemolysis of human red blood cells (human red blood cells; red cells of human, 32 μg/mL): 0.80%; % Hemolysis of human red blood cells (human red blood cells; red cells of human, 64 μg/mL): 1.05%; % Hemolysis of human red blood cells (human red blood cells; red cells of human, 128 μg/mL): 2.05%
5 | Gentamicyn | – | 64 | – | 64 | 64 | –
6 | Polimixyn B | – | 64 | – | 16 | 16 | –

— patent US7371720B2, “Cationic peptides of the phylloseptin family isolated from the skin secretion of Phyllomedusa hypochondrialis” (Empressa Brasileira de Pesquisa Agropecuaria - Embrapa, priority 2001, dated 2008)
